From patent US20090163549A1, “Pharmaceutical Composition Comprising an Amide Derivative” (priority 2005, published 2009)

How the values were obtained:
human TRPV1 receptors = biological target: T1, human TRPV1 receptors (Homo sapiens, UniProt Q8NER1); test: Inhibition of capsaicin-stimulated Ca2+ influx (Fluo-3, FDSS-3000) in CHO-K1 cells stably expressing human TRPV1 receptors; format: cell-based; details: CHO-K1 cells transfected with human TRPV1; capsaicin stimulation; Fluo-3 fluorescence
T1 construct: expressed in transfected cells; host or cells: CHO-K1
Experimental: CHO-K1 cells were transfected with human TRPV1 receptors and a cell culture stably expressing the receptor was seeded on a medium of alpha-MEM containing FBS(10%), HEPES (20 mM), geneticin (1 mg/mL) and antibiotic-antimycotic mixed solution(1%) in 96-well plates, and incubated at 37° C. and 5% CO2 for 2-3 days.
The medium was then substituted with Lording Buffer (20 mM HEPES, 115 mM NaCl, 5.4 mM KCl 0.8 mM MgCl2, 1.8 mM CaCl2, 13.8 mM D-glucose, 2.5 mM probenecid, pH 7.4) containing Fluo-3 AM (5 μM) and incubated at 37° C. and 5% CO2 for 1 hour. The test compounds were diluted to different concentrations and added to the plates after the incubated culture was washed with Wash Buffer (20 mM HEPES, 115 mM NaCl, 5.4 mM KCl 0.8 mM MgCl2, 5.0 mM CaCl2, 13.8 mM D-glucose, 2.5 mM probenecid, 0.1% BSA, pH 7.4) and placed at room temperature for 15 minutes.
The plate was set up in Functional Drug Screening System(FDSS)-3000(Hamamatsu Photonics K.K.) and amounts of Ca^2+ influx before and after capsaicin-stimulation were measured through changes in the fluorescence intensity of Fluo-3.
An inhibitory activity was evaluated by measuring fluorescence intensity in the presence of various concentrations of the test compounds and calculating their % inhibition on the basis that the maximum fluorescence intensity is 100% inhibition when stimulated by Wash Buffer, and 0% inhibition when stimulated by capsaicin
Data analysis and calculation of IC50 values were performed with Excel(Microsoft Corporation) and XLfit(idbs).

T1 sequence (Q8NER1 whole entry): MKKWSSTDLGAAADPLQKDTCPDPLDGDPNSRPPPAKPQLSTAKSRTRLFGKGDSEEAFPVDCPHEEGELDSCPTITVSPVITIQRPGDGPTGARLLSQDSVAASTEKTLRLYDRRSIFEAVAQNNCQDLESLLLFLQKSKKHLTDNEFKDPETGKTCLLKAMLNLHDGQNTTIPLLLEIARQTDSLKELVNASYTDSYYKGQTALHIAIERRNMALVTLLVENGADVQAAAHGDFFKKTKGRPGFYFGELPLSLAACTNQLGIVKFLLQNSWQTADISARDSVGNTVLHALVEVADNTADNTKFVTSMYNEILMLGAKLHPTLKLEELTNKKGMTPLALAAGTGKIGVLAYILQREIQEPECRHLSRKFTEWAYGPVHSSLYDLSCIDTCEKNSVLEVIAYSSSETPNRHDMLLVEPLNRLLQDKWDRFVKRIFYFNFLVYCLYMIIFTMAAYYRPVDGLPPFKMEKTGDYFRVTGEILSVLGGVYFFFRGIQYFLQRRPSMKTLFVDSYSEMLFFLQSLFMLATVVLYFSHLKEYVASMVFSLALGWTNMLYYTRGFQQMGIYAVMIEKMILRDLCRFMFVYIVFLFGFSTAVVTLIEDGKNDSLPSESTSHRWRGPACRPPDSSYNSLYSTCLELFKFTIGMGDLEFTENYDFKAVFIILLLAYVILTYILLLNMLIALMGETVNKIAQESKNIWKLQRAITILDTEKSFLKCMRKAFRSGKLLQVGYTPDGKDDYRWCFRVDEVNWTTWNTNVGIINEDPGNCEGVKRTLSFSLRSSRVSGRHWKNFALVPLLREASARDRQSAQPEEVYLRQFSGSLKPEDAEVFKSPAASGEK

IC50 (human TRPV1 receptors) [nM] | melting point [°C] | SMILES
176 | 165 to 166 | CC(C)(C)c1ccc(NC(=O)c2ccc(C3OCCCO3)cc2)cc1 [Ia-1]
297 | 148 to 149 | CC(C)(C)c1ccc(NC(=O)c2ccc(C3(C)OCCCO3)cc2)cc1 [Ia-2, N-(4-tert-butylphenyl)-4-(2-methyl-1,3-dioxane-2-yl)benzamide]
210 | 119 to 120 | CC(C)(C)c1ccc(NC(=O)c2ccc(C3NCCS3)cc2)cc1 (centres unmarked) [Ib-1]
190 | 152 to 153 | CC(C)(C)c1ccc(NC(=O)c2ccc(C3(C)NCCS3)cc2)cc1 (centres unmarked) [Ib-2]
250 | 138 to 139 | CC(C)(C)c1ccc(NC(=O)c2ccc(C3(C)NCCO3)cc2)cc1 (centres unmarked) [Ic-1]
230 | 180 to 189 | CC(C)(C)c1ccc(NC(=O)c2ccc(C3(C)OCCO3)cc2)cc1 [Ie-2]
6 | 176 to 177 | CC(C)(C)c1ccc(NC(=O)c2ccc(C3=NCCS3)cc2)cc1 [If-1, N-(4-tert-butylphenyl)-4-(2-thiazolinyl)benzamide]
– | > 300 | CC(C)(C)c1ccc(NC(=O)c2ccc(C3NOC(=O)N3)cc2)cc1 (centres unmarked) [Ih-1, N-(4-tert-butylphenyl)-4-(5-oxo-1,2,4-oxadiazolidine-3-yl)benzamide]
163 | 154 to 155 | CON=C(C)c1ccc(C(=O)Nc2ccc(C(C)(C)C)cc2)cc1 [Ij-4, N-(4-tert-butylphenyl)-4-(1-methoxyiminoethyl)benzamide]
